Like-named read-outs stand apart in the source and are kept apart here.
Experiments:
HBV GT C = assay: Transient-transfection antiviral study in HepG2 cells, GT C; format: cell-based; conditions: Hepatitis B virus, HepG2, 72 h, read-out: EC50 (mean), HBV GT C
Procedure: (§1) Cells were cotransfected with the HBV plasmids (100 ng/well) and a Gaussia expression plasmid (10 ng/well) (Thermo Scientific) using the Lipofectamine LTX Plus transfection reagent (Life Technologies). Transfection mixtures were removed after overnight incubation, and cells were treated with serially diluted NVR 3-778 at a final dimethyl sulfoxide (DMSO) concentration of 0.5%. After 3 days of incubation with the compound, the supernatants were collected and secreted Gaussia luciferase was measured using a Gaussia Flash luciferase assay kit (Thermo Scientific). […] Samples were diluted into lysis buffer (Affymetrix) containing 2.5 µg proteinase K (Affymetrix) at 50°C for 40 min. Intracellular encapsidated HBV DNA was denatured for 30 min at 25°C in 0.2 M NaOH (Sigma) and incubated with HBV DNA probes designed to hybridize to the minus-strand HBV DNA (Affymetrix). The denatured DNA was subsequently detected using a QuantiGene assay kit, according to the branched DNA (bDNA) assay recommended by the manufacturer (Affymetrix).

HBV GT D = assay: Transient-transfection antiviral study in HepG2 cells, GT D; format: cell-based; conditions: Hepatitis B virus, HepG2, 72 h, read-out: EC50 (mean), HBV GT D
Procedure: as §1

[1] = system: HBV isolates representing GT A to H; assay: Transient-transfection antiviral study, panel of HBV isolates GT A to H (summary statements); format: cell-based, hepatitis B virus; conditions: EC50 values within this factor of each other
Procedure: as §1

[2] = 28-day twice-daily oral gavage pharmacokinetics in CD1 mice; format: in vivo; conditions: for Cmax / half-life / AUC(0-t) / Tmax: CD1, mouse, plasma, po; for AUC(0-t): after second daily dose, read-out: AUC0–12; for Tmax: relative to second daily dose
Procedure: Fed male and female CD1 mice (36/sex/group) were dosed twice a day (BID) by oral gavage with 50, 150, and 500 mg/kg of body weight/dose of NVR 3-778 for 28 days. At different time points after dosing, plasma was analyzed for NVR 3-778 concentration by liquid chromatography-tandem mass spectrometry (LC-MS/MS).
In vivo pharmacokinetics studies were performed at Covance Laboratories (Madison, Wisconsin), accredited by the Association for Assessment and Accreditation of Laboratory Animal Care (AAALAC). All procedures in the protocols were in compliance with applicable animal welfare acts and were approved by the local Institutional Animal Care and Use Committee (IACUC). For the 28-day study in mice, male and female mice were 6 to 7 weeks old at the initiation of dosing. Environmental conditions, diet, and water were typical for pharmacokinetic and tolerability studies. NVR 3-778 was dosed in a vehicle of 0.5% (wt/vol) hydroxypropyl methylcellulose (Methocel E50 premium)--1% (wt/vol) polysorbate 80 (Tween 80) in reverse osmosis water. Blood samples were collected at 0.25, 0.5, 1, 3, 6, and 12 h after dosing on day 1 and on day 28 of the study into potassium (K2) EDTA. Plasma was harvested and stored at −80°C.

plasma proteins = assay: Plasma protein binding by equilibrium dialysis, rat; format: in vitro ADME; conditions: 2 µM
From the text: The binding of NVR 3-778 to the plasma proteins of mouse, rat, dog, monkey, and human was investigated by equilibrium dialysis.

HBV = assay: Effect of human serum on antiviral activity in HepG2.2.15 cells; format: cell-based, hepatitis B virus (GT D); conditions: for EC50 / EC90: Hepatitis B virus, HepG2.2.15, 144 h, HepG2.2.15 cells, 6 days
Procedure: To determine the effect of human protein binding on NVR 3-778 antiviral activity, HepG2.2.15 cells were incubated with increasing concentrations of NVR 3-778 in the presence of 0% to 40% human serum.
In combination studies, cells were treated with compounds either alone or in combination after combining the compounds in a checkerboard format. In studies examining the effect of human serum, serially diluted NVR 3-778 was added into cell culture medium containing 0% to 40% human serum (BioreclamationIVT). Cells were incubated with the compounds for 3 days, after which the medium was removed, fresh medium containing the compounds was added to the cells, and the cells were incubated for another 3 days prior to harvesting of the supernatants or cells for antiviral assays. To quantify intracellular encapsidated rcDNA or encapsidated pgRNA, cells were first solubilized using lysis buffer containing 1% NP-40 and 10 mM CaCl2. The cytoplasmic fraction was then treated with S7 nuclease (6 units) to remove nonencapsidated nucleic acids, after which the S7 nuclease was inactivated by the addition of EDTA (0.5 M). […] The levels of HBV DNA were determined by a bDNA assay as described above (Affymetrix). Supernatants or cell lysates containing HBV RNA were treated with proteinase K (2.5 µg) at 50°C for 40 min, transferred to a capture plate containing HBV RNA probe sets, and hybridized overnight at 55°C. Captured HBV RNA was measured by the addition of a chemiluminescent substrate using a QuantiGene assay (Affymetrix). […] At day 6, the CellTiter-Glo reagent was added to the cells and viability was determined according to the manufacturer’s protocol (Promega). Luminescence signals were measured at 0.2 s using a Victor X4 multimode plate reader (PerkinElmer). […]
Figure S3. Effect of human serum on NVR 3-778 antiviral activities. HepG2.2.15 cells were incubated with increasing concentrations of NVR 3-778 for 6 days in the presence of 0% (●), 10% […]
HBV DNA concentrations were determined from supernatant and compared to untreated cells containing the corresponding concentration of human serum. Data points represent mean values from at least three independent antiviral studies, and standard deviations are shown as error bars.

[3] = female, 50 mg/kg, day 1, 50 mg/kg/dose BID oral gavage, F
[4] = female, 50 mg/kg, day 28, 50 mg/kg/dose BID oral gavage, F
[5] = female, 150 mg/kg, day 1, 150 mg/kg/dose BID oral gavage, F
[6] = female, 150 mg/kg, day 28, 150 mg/kg/dose BID oral gavage, F
[7] = female, 500 mg/kg, day 1, 500 mg/kg/dose BID oral gavage, F
[8] = female, 500 mg/kg, day 28, 500 mg/kg/dose BID oral gavage, F
[9] = male, 50 mg/kg, day 1, 50 mg/kg/dose BID oral gavage, M
[10] = male, 50 mg/kg, day 28, 50 mg/kg/dose BID oral gavage, M
[11] = male, 150 mg/kg, day 1, 150 mg/kg/dose BID oral gavage, M
[12] = male, 150 mg/kg, day 28, 150 mg/kg/dose BID oral gavage, M
[13] = male, 500 mg/kg, day 1, 500 mg/kg/dose BID oral gavage, M
[14] = male, 500 mg/kg, day 28, 500 mg/kg/dose BID oral gavage, M
[15] = 2% human serum as printed in the table (text: 20%) versus without human serum
[16] = 10% human serum versus without human serum
[17] = 0% human serum, supernatant HBV DNA
[18] = 2% human serum as printed in the table (text: 20%)
[19] = 10% human serum, supernatant HBV DNA
[20] = 40% human serum, supernatant HBV DNA

O=C(Nc1cc(F)c(F)c(F)c1)c1ccc(F)c(S(=O)(=O)N2CCC(O)CC2)c1 [NVR 3-778]
EC50 (HBV GT C): 0.34 µM
EC50 (HBV GT D): 0.43 µM
Spread of EC50 values against HBV DNA replication across GT A to H isolates [1]: ≤ 3 fold
Gender differences in NVR 3-778 exposure ([2]; CD1 mice, Cmax and AUC): less than 2 fold
Cmax ([2]; both sexes, 500 mg/kg, 28-day study, dosed orally at 500 mg/kg BID, 100 µM = 43.2 µg/ml, read-out: Mean Cmax (serum/plasma level reached in mice)): > 100 µM
half-life [2, 3]: 2.2 h
AUC(0-t) [2, 3]: 60.1 µg·h/mL
Cmax ([2]; female, 50 mg/kg, day 1, 50 mg/kg/dose BID oral gavage, F, read-out: Cmax): 11.7 µg/mL
Tmax [2, 3]: 0.5 h
AUC(0-t) [2, 4]: 78.8 µg·h/mL
Cmax ([2]; female, 50 mg/kg, day 28, 50 mg/kg/dose BID oral gavage, F, read-out: Cmax): 11.5 µg/mL
Tmax [2, 4]: 3 h
half-life [2, 5]: 4.35 h
AUC(0-t) [2, 5]: 131 µg·h/mL
Cmax ([2]; female, 150 mg/kg, day 1, 150 mg/kg/dose BID oral gavage, F, read-out: Cmax): 22 µg/mL
Tmax [2, 5]: 0.5 h
half-life [2, 6]: 2.48 h
AUC(0-t) [2, 6]: 171 µg·h/mL
Cmax ([2]; female, 150 mg/kg, day 28, 150 mg/kg/dose BID oral gavage, F, read-out: Cmax): 26.6 µg/mL
Tmax [2, 6]: 1 h
AUC(0-t) [2, 7]: 315 µg·h/mL
Cmax ([2]; female, 500 mg/kg, day 1, 500 mg/kg/dose BID oral gavage, F, read-out: Cmax): 41.4 µg/mL
Tmax [2, 7]: 0.5 h
AUC(0-t) [2, 8]: 354 µg·h/mL
Cmax ([2]; female, 500 mg/kg, day 28, 500 mg/kg/dose BID oral gavage, F, read-out: Cmax): 40.8 µg/mL
Tmax [2, 8]: 3 h
AUC(0-t) [2, 9]: 70.4 µg·h/mL
Cmax ([2]; male, 50 mg/kg, day 1, 50 mg/kg/dose BID oral gavage, M, read-out: Cmax): 12.7 µg/mL
Tmax [2, 9]: 1 h
AUC(0-t) [2, 10]: 87.3 µg·h/mL
Cmax ([2]; male, 50 mg/kg, day 28, 50 mg/kg/dose BID oral gavage, M, read-out: Cmax): 11.9 µg/mL
Tmax [2, 10]: 3 h
half-life [2, 11]: 5 h
AUC(0-t) [2, 11]: 166 µg·h/mL
Cmax ([2]; male, 150 mg/kg, day 1, 150 mg/kg/dose BID oral gavage, M, read-out: Cmax): 25.3 µg/mL
Tmax [2, 11]: 1 h
AUC(0-t) [2, 12]: 157 µg·h/mL
Cmax ([2]; male, 150 mg/kg, day 28, 150 mg/kg/dose BID oral gavage, M, read-out: Cmax): 24.2 µg/mL
Tmax [2, 12]: 1 h
AUC(0-t) [2, 13]: 406 µg·h/mL
Cmax ([2]; male, 500 mg/kg, day 1, 500 mg/kg/dose BID oral gavage, M, read-out: Cmax): 43 µg/mL
Tmax [2, 13]: 1 h
half-life [2, 14]: 3.15 h
AUC(0-t) [2, 14]: 375 µg·h/mL
Cmax ([2]; male, 500 mg/kg, day 28, 500 mg/kg/dose BID oral gavage, M, read-out: Cmax): 43.8 µg/mL
Tmax [2, 14]: 3 h
Circulating species in plasma ([2]; mice, oral gavage): predominant circulating molecule
Mean percent binding to plasma proteins (plasma proteins): approximately 91%
EC50 fold shift (HBV; 0% human serum (reference)): 1
EC90 fold shift (HBV; 0% human serum (reference)): 1.0
EC50 fold shift (HBV; [15]): 9.3
EC90 fold shift (HBV; [15]): 10.3
EC50 fold shift (HBV; [16]): 4.5
EC90 fold shift (HBV; [16]): 4.5
EC90 fold shift (HBV; 40% human serum versus without human serum): 15.2
EC50 (HBV; [17]): 0.4 ± 0.1 µM
EC90 (HBV; [17]): 1.5 ± 0.41 µM
EC50 (HBV; [18]): 3.7 ± 1 µM
EC90 (HBV; [18]): 15.9 ± 6.3 µM
EC50 (HBV; [19]): 1.8 ± 0.51 µM
EC90 (HBV; [19]): 6.9 ± 0.9 µM
EC50 (HBV; [20]): 6.3 ± 2 µM
EC90 (HBV; [20]): 23.5 ± 11.6 µM
